Reference: article PMC4855137, “Raffinose, a plant galactoside, inhibits Pseudomonas aeruginosa biofilm formation via binding to LecA and decreasing cellular cyclic diguanylate levels” (Scientific Reports, 2016)

What was measured:
LecA (PA-IL) [1] = target: T1, LecA (PA-IL) (Pseudomonas aeruginosa, UniProt Q05097); assay: isothermal titration calorimetry; CPMG NMR competition with raffinose; assay type: binding
LecA (PA-IL) [2] = target: T1, LecA (PA-IL); assay: isothermal titration calorimetry; 1D relaxation-edited (CPMG) NMR with galactose competition; assay type: binding

T1 sequence (Q05097 2-122): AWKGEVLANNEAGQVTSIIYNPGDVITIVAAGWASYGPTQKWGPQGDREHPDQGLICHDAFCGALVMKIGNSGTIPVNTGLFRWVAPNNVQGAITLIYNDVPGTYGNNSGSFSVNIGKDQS

SMILES | Kd (LecA (PA-IL) [1]) [µM] | Kd (LecA (PA-IL) [2]) [µM]
OC[C@H]1OC(O)[C@H](O)[C@@H](O)[C@H]1O (stereo partly drawn) [D-galactose] | 47 | 
OC[C@H]1O[C@H](OC[C@H]2O[C@H](O[C@]3(CO)O[C@H](CO)[C@@H](O)[C@@H]3O)[C@H](O)[C@@H](O)[C@@H]2O)[C@H](O)[C@@H](O)[C@H]1O [raffinose] |  | 32
